Legend:
[1] = test system: CFA-induced inflammatory pain model; assay: CFA-induced mechanical allodynia, von Frey paw withdrawal frequency; format: in vivo; conditions: CFA mice, 30 mg/kg i.p., 0.07 g and 0.4 g von Frey filaments, ipsilateral side, 12 to 72 h post-CFA
Method: To evaluate the analgesic effects of Compound 14e in vivo, we established an inflammatory pain model using intraplantar injection of CFA. Compound 14e (30 mg/kg) was administered intraperitoneally at 6 h, with subsequent doses at 48 and 72 h after CFA injection. Behavioral assessments, including von Frey testing for mechanical allodynia and heat stimuli for thermal hyperalgesia, were conducted on the injected hind paw at baseline (BL), as well as at 6, 12, 18, 24, 48 and 72 h post-CFA injection. Additionally, flinching and guarding behaviors, indicators of spontaneous pain, were evaluated 72 h after CFA injection. […] (A,B) Evaluation of CFA-induced mechanical allodynia as assessed by withdrawal frequency to 0.07 g (A) and 0.4 g (B) von Frey filaments in mice repetitive treated with 10% DMSO or compound 14e. […] The dosage of compound 14e was determined based on our preliminary experiments. Mechanical hypersensitivity was assessed by measuring paw withdrawal frequency (PWF) as described previously in our reports ([Ma et al., 2021]; [Pan et al., 2021]). The PWF in response to mechanical stimulus was determined using two calibrated von Frey filaments (0.07 and 0.4 g, North Coast Medical Inc., Gilroy, United States). […] The PWF was calculated based on the number of positive responses from the 10 applications ([number of paw withdrawals/10 trials] × 100 = % response frequency).

IL-1β = assay: ELISA of IL-1β in inflamed paw, spinal cord and serum of CFA mice; format: in vivo; conditions: ipsilateral L4–L6 spinal cord and serum, 72 h after CFA
Text: To determine whether the analgesic effects of Compound 14e are associated with reduced local and systemic inflammation, we measured the levels of inflammatory factors in the inflamed paw tissue, ipsilateral L4–L6 spinal cord, and peripheral blood. The results indicated a significant increase in the protein levels of TNF-α and IL-1β in the inflamed paw, spinal cord, and serum of mice in the CFA group compared to the vehicle group.
FIGURE 6 Compound 14e reduces TNF-α and IL-1β in the inflamed hindpaw skin, spinal cord and peripheral blood 72 h after CFA-induced inflammation. (A,D) Expression levels of TNF-α and IL-1β in the inflamed skin tissue. (B,E) Expression levels of TNF-α and IL-1β in ipsilateral L4–6 spinal cord. […]
Under anesthesia with 1% pentobarbital sodium, serum was obtained from the mice orbits, after coagulation at room temperature for 2 h, the sample was then centrifuged at 1,000 × g for 20 min at 4 °C, with the supernatant collected. […] The protein concentrations were determined using a bicinchoninic acid (BCA) kit (Pierce Biotechnology Inc.). The following inflammatory factors were measured using Mouse TNF-α ELISA kit (EM0183) and IL-1β ELISA kit (EM0109) obtained from Wuhan Fine Biotechnology Company, according to the product protocols. The O.D. absorbance at 450 nm was quantified in a ultramicroplate spectrophotometer (BioTek Epoch).

O=C1COc2ccc(NC(=O)c3cccc(-c4cn(Cc5c(F)cccc5Cl)nn4)c3)cc2N1 [Compound 14e]
mechanical allodynia, paw withdrawal frequency (PWF) [1]: significantly alleviated
CFA-induced levels of IL-1β (IL-1β): significantly decreased

— paper PMC12491243, “Rational design of indoleamine 2,3-dioxygenase 1 (IDO1) inhibitors featuring 1,2,3-triazole derivatives with enhanced anti-inflammatory and analgesic efficacy” (Frontiers in Pharmacology, 2025)
